Test results reported in PubChem BioAssay (NCI).
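Compound exposure: 48 hours, 5 concentrations, 96-well plates. TGI is the concentration that stops growth completely.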

Key:
Assay in all cases: NCI tumour cell line growth inhibition, 48 h
786-0 renal = system: 786-0 renal
A498 renal = system: A498 renal
A549 NSCLC = system: A549 NSCLC
ACHN renal = system: ACHN renal
CAKI-1 renal = system: CAKI-1 renal
CCRF-CEM leukemia = system: CCRF-CEM leukemia
COLO 205 colon = system: COLO 205 colon
DLD-1 colon = system: DLD-1 colon
DMS 114 small cell lung = system: DMS 114 small cell lung
DMS 273 small cell lung = system: DMS 273 small cell lung
EKVX NSCLC = system: EKVX NSCLC
HCC-2998 colon = system: HCC-2998 colon
HCT-116 colon = system: HCT-116 colon
HCT-15 colon = system: HCT-15 colon
HOP-62 NSCLC = system: HOP-62 NSCLC
HT29 colon = system: HT29 colon
IGROV1 ovarian = system: IGROV1 ovarian
K-562 leukemia = system: K-562 leukemia
KM12 colon = system: KM12 colon
KM20L2 colon = system: KM20L2 colon
LOX IMVI melanoma = system: LOX IMVI melanoma
LXFL 529 NSCLC = system: LXFL 529 NSCLC
M14 melanoma = system: M14 melanoma
M19-MEL melanoma = system: M19-MEL melanoma
MALME-3M melanoma = system: MALME-3M melanoma
MOLT-4 leukemia = system: MOLT-4 leukemia
NCI-H23 lung = system: NCI-H23 lung
NCI-H460 lung = system: NCI-H460 lung
OVCAR-3 ovarian = system: OVCAR-3 ovarian
OVCAR-4 ovarian = system: OVCAR-4 ovarian
OVCAR-5 ovarian = system: OVCAR-5 ovarian
OVCAR-8 ovarian = system: OVCAR-8 ovarian
RPMI-8226 leukemia = system: RPMI-8226 leukemia
RXF 393 renal = system: RXF 393 renal
RXF-631 renal = system: RXF-631 renal
SF-268 CNS = system: SF-268 CNS
SF-295 CNS = system: SF-295 CNS
SF-539 CNS = system: SF-539 CNS
SK-MEL-2 melanoma = system: SK-MEL-2 melanoma
SK-MEL-28 melanoma = system: SK-MEL-28 melanoma
SK-MEL-5 melanoma = system: SK-MEL-5 melanoma
SK-OV-3 ovarian = system: SK-OV-3 ovarian
SN12C renal = system: SN12C renal
SNB-19 CNS = system: SNB-19 CNS
SNB-75 CNS = system: SNB-75 CNS
SNB-78 CNS = system: SNB-78 CNS
SW-620 colon = system: SW-620 colon
TK-10 renal = system: TK-10 renal
U251 CNS = system: U251 CNS
UACC-257 melanoma = system: UACC-257 melanoma
UACC-62 melanoma = system: UACC-62 melanoma
UO-31 renal = system: UO-31 renal
XF 498 CNS = system: XF 498 CNS
HL-60(TB) leukemia = system: HL-60(TB) leukemia
NCI-H226 lung = system: NCI-H226 lung
NCI-H522 lung = system: NCI-H522 lung
SR leukemia = system: SR leukemia

`Cc1nn(-c2ccccc2)c2nc(N3CCOCC3)nnc12` was tested, and the TGI (786-0 renal) was > 100 µM, the TGI (A498 renal) was > 100 µM and the TGI (A549 NSCLC) was > 100 µM. The TGI (ACHN renal) was > 100 µM, the TGI (CAKI-1 renal) was > 100 µM and the TGI (CCRF-CEM leukemia) was > 100 µM. The TGI (COLO 205 colon) was > 100 µM, the TGI (DLD-1 colon) was > 100 µM and the TGI (DMS 114 small cell lung) was > 100 µM. The TGI (DMS 273 small cell lung) was > 100 µM, the TGI (EKVX NSCLC) was > 100 µM and the TGI (HCC-2998 colon) was > 100 µM. For the same molecule, the TGI (HCT-116 colon) was > 100 µM, the TGI (HCT-15 colon) was > 100 µM and the TGI (HOP-62 NSCLC) was > 100 µM. The TGI (HT29 colon) was > 100 µM, the TGI (IGROV1 ovarian) was > 100 µM and the TGI (K-562 leukemia) was > 100 µM. For the same molecule, the TGI (KM12 colon) was > 100 µM, the TGI (KM20L2 colon) was > 100 µM and the TGI (LOX IMVI melanoma) was > 100 µM. The TGI (LXFL 529 NSCLC) was > 100 µM, the TGI (M14 melanoma) was > 100 µM and the TGI (M19-MEL melanoma) was > 100 µM. The TGI (MALME-3M melanoma) was > 100 µM, the TGI (MOLT-4 leukemia) was > 100 µM and the TGI (NCI-H23 lung) was > 100 µM. For the same molecule, the TGI (NCI-H460 lung) was > 100 µM, the TGI (OVCAR-3 ovarian) was > 100 µM and the TGI (OVCAR-4 ovarian) was > 100 µM. For the same molecule, the TGI (OVCAR-5 ovarian) was > 100 µM, the TGI (OVCAR-8 ovarian) was > 100 µM and the TGI (RPMI-8226 leukemia) was > 100 µM. The TGI (RXF 393 renal) was > 100 µM, the TGI (RXF-631 renal) was > 100 µM and the TGI (SF-268 CNS) was > 100 µM. The TGI (SF-295 CNS) was > 100 µM, the TGI (SF-539 CNS) was > 100 µM and the TGI (SK-MEL-2 melanoma) was > 100 µM. For the same molecule, the TGI (SK-MEL-28 melanoma) was > 100 µM, the TGI (SK-MEL-5 melanoma) was > 100 µM and the TGI (SK-OV-3 ovarian) was > 100 µM. The TGI (SN12C renal) was > 100 µM, the TGI (SNB-19 CNS) was > 100 µM and the TGI (SNB-75 CNS) was > 100 µM. For the same molecule, the TGI (SNB-78 CNS) was > 100 µM, the TGI (SW-620 colon) was > 100 µM and the TGI (TK-10 renal) was > 100 µM. The TGI (U251 CNS) was > 100 µM, the TGI (UACC-257 melanoma) was > 100 µM and the TGI (UACC-62 melanoma) was > 100 µM. For the same molecule, the TGI (UO-31 renal) was > 100 µM and the TGI (XF 498 CNS) was > 100 µM.
In the case of `COc1ccc2c3c([nH]c2c1[N+](=O)[O-])C(C)=NCC3`, the TGI (786-0 renal) is reported as > 100 µM, the TGI (A498 renal) is reported as > 100 µM and the TGI (A549 NSCLC) is reported as > 100 µM. The TGI (ACHN renal) was > 100 µM, the TGI (CAKI-1 renal) was > 100 µM and the TGI (CCRF-CEM leukemia) was > 100 µM. For the same molecule, the TGI (COLO 205 colon) was > 100 µM, the TGI (DLD-1 colon) was > 100 µM and the TGI (DMS 114 small cell lung) was > 100 µM. The TGI (DMS 273 small cell lung) was > 100 µM, the TGI (EKVX NSCLC) was > 100 µM and the TGI (HCC-2998 colon) was > 100 µM. The TGI (HCT-116 colon) was > 100 µM, the TGI (HCT-15 colon) was > 100 µM and the TGI (HL-60(TB) leukemia) was > 100 µM. For the same molecule, the TGI (HOP-62 NSCLC) was > 100 µM, the TGI (HT29 colon) was > 100 µM and the TGI (IGROV1 ovarian) was 77.2 µM. The TGI (K-562 leukemia) was > 100 µM, the TGI (KM12 colon) was > 100 µM and the TGI (KM20L2 colon) was > 100 µM. The TGI (LOX IMVI melanoma) was > 100 µM, the TGI (LXFL 529 NSCLC) was > 100 µM and the TGI (M14 melanoma) was > 100 µM. For the same molecule, the TGI (MOLT-4 leukemia) was > 100 µM, the TGI (NCI-H226 lung) was > 100 µM and the TGI (NCI-H460 lung) was > 100 µM. For the same molecule, the TGI (NCI-H522 lung) was > 100 µM, the TGI (OVCAR-3 ovarian) was > 100 µM and the TGI (OVCAR-4 ovarian) was > 100 µM. For the same molecule, the TGI (OVCAR-5 ovarian) was > 100 µM, the TGI (OVCAR-8 ovarian) was > 100 µM and the TGI (RPMI-8226 leukemia) was > 100 µM. For the same molecule, the TGI (RXF 393 renal) was > 100 µM, the TGI (RXF-631 renal) was > 100 µM and the TGI (SF-268 CNS) was 64.7 µM. The TGI (SF-295 CNS) was > 100 µM, the TGI (SF-539 CNS) was > 100 µM and the TGI (SK-MEL-2 melanoma) was > 100 µM. The TGI (SK-MEL-28 melanoma) was > 100 µM, the TGI (SN12C renal) was > 100 µM and the TGI (SNB-19 CNS) was > 100 µM. The TGI (SNB-75 CNS) was > 100 µM, the TGI (SNB-78 CNS) was > 100 µM and the TGI (SR leukemia) was > 100 µM. For the same molecule, the TGI (SW-620 colon) was > 100 µM, the TGI (TK-10 renal) was > 100 µM and the TGI (U251 CNS) was > 100 µM. For the same molecule, the TGI (UACC-257 melanoma) was > 100 µM, the TGI (UACC-62 melanoma) was 62.3 µM and the TGI (UO-31 renal) was > 100 µM.
